Columns and labels:
[1] = Plasma triglyceride levels in wildtype and LXR knockout mice after oral dosing; type: in vivo; conditions: 10 mg/kg daily oral gavage, 7 days
Excerpt: (§1) To decipher the physiological roles of LXRα and LXRβ mice, seven different lines of mice encompassing four unique LXR genotypes (LXRα+/+, LXRβ+/+=wildtype; LXRα−/−, LXRβ+/+=LXRα−/−; LXRα+/+, LXRβ−/−=LXRβ−/−; LXRα−/−, LXRβ−/−=LXRαβ−/−) were studied. Genetic knockouts of LXRα( LXRα−/−) were generated in two independent mouse strain backgrounds (C57BL/6 and A129). Genetic knockouts of LXRβ (LXRβ−/−) and the double knockout of LXRα and LXRβ (LXRαβ−/−) were generated in a mixed genetic background (C57BL/6×A129). The three appropriate wildtype (LXRα+/+, LXRβ+/+) mouse lines were used as controls. Mice from each line were treated for seven days with 10 mg compound/kg body weight of the LXR agonist Compound 1: N-(2,2,2-trifluoroethyl)-N-[4-(2,2,2- trifluoro-1-hydroxy-1-trifluoromethylethyl)-phenyl]-benzene sulfonamide. […] Compound 1 was administered by daily oral gavage in a sesame oil/ethanol vehicle via a 1-cc syringe fitted with a 20G disposable feeding needle. Compound was solvated in ethanol (5% final volume) and brought up to final volume with sesame oil (Sigma, St. Louis, Mo.).
To determine the ability of Compound 1 to elevate serum triglycerides non-fasting mice were anesthetized with isofluorane and blood samples were obtained by retro-orbital plexus puncture. Blood samples were collected before the first dose and three hours after dosing on day 1, day 3 and day 7 into heparinized tubes. Samples were centrifuged to obtain plasma and stored at −20° C. Plasma triglyceride levels were determined using a colorimetric enzymatic assay adapted to a 96 well plate format (Infinity Triglyceride Reagent, Sigma, St. Louis, Mo.). Sigma glycerol standards (Sigma, St. Louis, Mo.) were use to generate standard curves. The absorbance of the samples and standards were read using a Multiskan plate reader.

[2] = tested on: lipoprotein lipase (LPL) mRNA; test: Liver lipoprotein lipase (LPL) mRNA by quantitative PCR in treated mice; type: in vivo; conditions: 10 mg/kg daily oral; for LPL mRNA induction: day 7
Excerpt: as §1

[3] = Plasma HDL cholesterol levels in wildtype and LXR knockout mice; type: in vivo; conditions: 10 mg/kg daily oral, day 7
Method: To determine the individual contribution of LXRα and LXRβ to increases in HDL cholesterol levels, Compound 1 (10 mg/kg) was administered for seven days by daily oral gavage in a sesame oil/ethanol vehicle via a 1 cc syringe fitted with a 20G disposable feeding needle. Compound was solvated in ethanol (5% final volume) and brought up to final volume with sesame oil (Sigma, St. Louis, Mo.). On day 7 mice were anesthetized with isofluorane and blood samples were obtained by retro-orbital plexus puncture. Blood samples were collected in heparinized tubes, centrifuged to obtain plasma and stored at -20° C. HDL levels were determined by precipitating non-HDL cholesterol from plasma samples using a precipitating reagent (Wako Diagnostic 278-67409, Richmond, Va.). The remaining HDL cholesterol was than quantitated using a colorimetric enzymatic assay adapted to a 96 well plate format (Infinity Total Cholesterol Reagent, Sigma, St. Louis, Mo.). […] (23%) strains and unchanged when LXRβ is eliminated. […] Thus either LXRα or LXRβ alone is competent to elevate HDL cholesterol in response to agonist treatment (FIG. 5). The lack of selectivity in HDL regulation contrasts the selective decrease in triglyceride levels observed only when LXRα is eliminated (LXRα-/-, LXRαβ-/-; FIGS. 1 and 2).

[4] = Dietary cholesterol absorption, fecal extraction method; type: in vivo, mice; conditions: 50 mg/kg daily oral, 7 days
Method: Induction of cholesterol efflux pumps such as ABCA1 in the intestine limits the absorption of dietary cholesterol by stimulating the efflux of cholesterol out of intestinal enterocytes and into the intestinal lumen where it is excreted. To examine the effect of LXR pan-agonists on dietary cholesterol absorption, mixed wildtype and LXRαβ−/− mice were treated with vehicle or Compound 1 (50 mg/kg) for seven days prior to the initiation of the cholesterol absorption protocol. Compound 1 was administered by daily oral gavage in a 1% carboxy methyl-cellulose/ethanol vehicle via a 1-cc syringe fitted with a 20G disposable feeding needle. Compound was solvated in ethanol (5% final volume) and brought up to final volume with 1% carboxy methylcellulose. On day seven of the study, animals received a single oral bolus dose of 0.67 μCi [4-^14C]cholesterol (New England Nuclear, Boston, Mass.) and 1.3 μCi [5,6-^3H]sitostanol (ARC, St. Louis Mo.) by gavage in MCT oil (Mead Johnson, Evansville, Ind.). […] Extracted samples were counted on a scintillation counter and then analyzed based upon the following equation. [((^14C/^3H) dosing mixture)−(^14C/^3H) fecal samples)]/((^14C/^3H) dosing mixture). […] This agonist-dependent effect is lost in LXRαβ−/− mice indicating a requirement for LXR activity in mediating this activity.

With `O=S(=O)(c1ccccc1)N(CC(F)(F)F)c1ccc(C(O)(C(F)(F)F)C(F)(F)F)cc1` [Compound 1, N-(2,2,2-trifluoroethyl)-N-[4-(2,2,2-trifluoro-1-hydroxy-1-trifluoromethylethyl)-phenyl]-benzene sulfonamide] the “effect on serum triglyceride levels” value ([1]; LXRβ−/− mice) was “no effect on the ability of LXR agonists to elevate triglycerides”, the “effect on serum triglyceride levels” value ([1]; mice lacking LXRα (LXRα−/−, LXRαβ−/−)) was “elevates serum triglyceride levels only in mice that have LXRα” and the “effect on serum triglyceride levels” value ([1]; wildtype mice) was “elevates serum triglyceride levels”. For the same compound, the “LPL mRNA induction” value ([2]; LXRα−/− mice (C57BL/6 and A129)) was “completely blocks the pan-agonist induction of LPL”, the “LPL mRNA induction” value ([2]; LXRβ−/− mice) was “little or no effect” and the fold induction at 10 mg/kg ([2]; Mus musculus, 168 h, wildtype mice, day 7, read-out: LPL mRNA fold induction (+Compound 1/vehicle)) was 3 to 9. For the same compound, the “agonist-dependent increase in HDL” value ([3]; LXRαβ−/− mice) was “completely lost”, the “reduction of agonist-dependent increase in HDL” value ([3]; LXRα−/− A129 mice versus wildtype) was 23% and the “reduction of agonist-dependent increase in HDL” value ([3]; LXRα−/− C57BL/6 mice versus wildtype) was 8%. For the same compound, the “agonist-dependent increase in HDL” value ([3]; LXRβ−/− mice) was “unchanged”, the “effect on HDL levels” value ([3]; wildtype mice) was “significant increase in HDL levels” and the “effect on cholesterol absorption” value ([4]; LXRαβ−/− mice) was “lost”. The “effect on cholesterol absorption” value ([4]; mixed wildtype mice) was “significant decrease in cholesterol absorption”.
